Laboratory results taken from ChEMBL document CHEMBL1136316, “Low molecular mass peptide dendrimers that express antimicrobial properties” (2003).
Values after ≈ are worked out from the molar mass of the structure shown.

Assays:
Staphylococcus aureus = experiment: Antimicrobial activity against Staphylococcus aureus NCTC 4163; type: functional
Escherichia coli = experiment: Antimicrobial activity against Escherichia coli NCTC 8196; type: functional

MIC (Staphylococcus aureus) | MIC (Escherichia coli) | SMILES
94 µM (≈ 68.3 µg/mL) | 375 µM (≈ 273 µg/mL) | NCCCC[C@@H](NC(=O)OCc1ccccc1)C(=O)NCCCC[C@@H](NC(=O)[C@@H](CCCCN)NC(=O)OCc1ccccc1)C(=O)NCC(N)=O
151 µM (≈ 64.4 µg/mL) | 324 µM (≈ 138 µg/mL) | NCCCC[C@H](NC(=O)OCc1ccccc1)C(=O)N[C@@H](Cc1ccccc1)C(N)=O
1330 µM (≈ 1110 µg/mL) | 165 µM (≈ 137 µg/mL) | NCCCC[C@@H](NC(=O)OCc1ccccc1)C(=O)NCCCC[C@@H](NC(=O)[C@@H](CCCCN)NC(=O)OCc1ccccc1)C(=O)N[C@H](Cc1ccc(O)cc1)C(N)=O
331 µM (≈ 276 µg/mL) | 331 µM (≈ 276 µg/mL) | NC(=O)[C@@H](Cc1ccc(O)cc1)NC(=O)[C@@H](CCCCNC(=O)[C@H](N)CCCCNC(=O)OCc1ccccc1)NC(=O)[C@H](N)CCCCNC(=O)OCc1ccccc1
85 µM (≈ 68.3 µg/mL) | 85 µM (≈ 68.3 µg/mL) | NCCCC[C@@H](NC(=O)OCc1ccccc1)C(=O)NCCC[C@@H](NC(=O)[C@@H](CCCCN)NC(=O)OCc1ccccc1)C(=O)N[C@H](Cc1ccccc1)C(N)=O
16 µM (≈ 14.2 µg/mL) | 84 µM (≈ 74.4 µg/mL) | NC(=O)[C@@H](Cc1ccccc1)NC(=O)[C@@H](CCCCNC(=O)[C@H](N)CCCCNC(=O)OCc1ccccc1Cl)NC(=O)[C@H](N)CCCCNC(=O)OCc1ccccc1Cl
300 µM (≈ 92.2 µg/mL) | 590 µM (≈ 181 µg/mL) | COC(=O)[C@H](Cc1ccccc1)NC(=O)[C@@H](N)CCCCN
130 µM (≈ 153 µg/mL) | 75 µM (≈ 88 µg/mL) | NC(=O)[C@@H](Cc1ccccc1)NC(=O)[C@@H](CCCCNC(=O)[C@@H](CCCCNC(=O)[C@@H](N)CCCN=C(N)N)NC(=O)[C@@H](N)CCCN=C(N)N)NC(=O)[C@@H](CCCCNC(=O)C(N)CCCN=C(N)N)NC(=O)[C@H](N)CCCN=C(N)N (stereo partly specified)
44 µM (≈ 75.2 µg/mL) | 20 µM (≈ 34.2 µg/mL) | N=C(N)NCCC[C@@H](NC(=O)OCc1ccccc1)C(=O)NCCCC[C@H](NC(=O)[C@@H](CCCN=C(N)N)NC(=O)OCc1ccccc1)C(=O)N[C@H](CCCCNC(=O)C(CCCCNC(=O)[C@H](CCCN=C(N)N)NC(=O)OCc1ccccc1)NC(=O)[C@H](CCCN=C(N)N)NC(=O)OCc1ccccc1)C(=O)N[C@H](Cc1ccccc1)C(N)=O (stereo partly specified)
39 µM (≈ 31.9 µg/mL) | 64 µM (≈ 52.3 µg/mL) | NCCCC[C@@H](NC(=O)OCc1ccccc1)C(=O)NCCCC[C@@H](NC(=O)[C@@H](CCCCN)NC(=O)OCc1ccccc1)C(=O)N[C@H](Cc1ccccc1)C(N)=O
181 µM (≈ 151 µg/mL) | 181 µM (≈ 151 µg/mL) | C[C@H](N)C(=O)NCCCC[C@H](NC(=O)[C@H](C)N)C(=O)NCCCC[C@H](NC(=O)[C@H](CCCCNC(=O)[C@H](C)N)NC(=O)[C@H](C)N)C(=O)N[C@@H](Cc1ccccc1)C(N)=O (stereo in doubt)
88 µM (≈ 150 µg/mL) | 44 µM (≈ 75.2 µg/mL) | N=C(N)NCCCC(NC(=O)OCc1ccccc1)C(=O)NCCCC[C@@H](NC(=O)C(CCCN=C(N)N)NC(=O)OCc1ccccc1)C(=O)N[C@H](CCCCNC(=O)[C@@H](CCCCNC(=O)C(CCCN=C(N)N)NC(=O)OCc1ccccc1)NC(=O)C(CCCN=C(N)N)NC(=O)OCc1ccccc1)C(=O)N[C@H](Cc1ccccc1)C(N)=O (stereo in doubt)
44 µM (≈ 75.2 µg/mL) | 20 µM (≈ 34.2 µg/mL) | N=C(N)NCCCC(NC(=O)OCc1ccccc1)C(=O)NCCCCC(NC(=O)C(CCCN=C(N)N)NC(=O)OCc1ccccc1)C(=O)NCCCCC(NC(=O)C(CCCCNC(=O)C(CCCN=C(N)N)NC(=O)OCc1ccccc1)NC(=O)C(CCCN=C(N)N)NC(=O)OCc1ccccc1)C(=O)N[C@H](Cc1ccccc1)C(N)=O (stereo in doubt)
